Experimental data reported in ChEMBL document CHEMBL5465560, “Selectivity Literature for EUbOPEN Chemogenomic Library” (2024).

Columns and labels:
[1] = target: Mitogen-activated protein kinase kinase kinase 10 (Homo sapiens) (UniProt Q02779); assay: Selectivity interaction (KinomeScan (DiscoverX)) EUB0000655a MAP3K10; conditions: at 10 µM
[2] = target: T1, Phosphatidylinositol 3-kinase C2 domain-containing subunit gamma (Homo sapiens) (UniProt O75747); assay: Selectivity interaction (KinomeScan (DiscoverX)) EUB0001079a PIK3C2G; conditions: at 1 µM
T1 sequence (whole entry): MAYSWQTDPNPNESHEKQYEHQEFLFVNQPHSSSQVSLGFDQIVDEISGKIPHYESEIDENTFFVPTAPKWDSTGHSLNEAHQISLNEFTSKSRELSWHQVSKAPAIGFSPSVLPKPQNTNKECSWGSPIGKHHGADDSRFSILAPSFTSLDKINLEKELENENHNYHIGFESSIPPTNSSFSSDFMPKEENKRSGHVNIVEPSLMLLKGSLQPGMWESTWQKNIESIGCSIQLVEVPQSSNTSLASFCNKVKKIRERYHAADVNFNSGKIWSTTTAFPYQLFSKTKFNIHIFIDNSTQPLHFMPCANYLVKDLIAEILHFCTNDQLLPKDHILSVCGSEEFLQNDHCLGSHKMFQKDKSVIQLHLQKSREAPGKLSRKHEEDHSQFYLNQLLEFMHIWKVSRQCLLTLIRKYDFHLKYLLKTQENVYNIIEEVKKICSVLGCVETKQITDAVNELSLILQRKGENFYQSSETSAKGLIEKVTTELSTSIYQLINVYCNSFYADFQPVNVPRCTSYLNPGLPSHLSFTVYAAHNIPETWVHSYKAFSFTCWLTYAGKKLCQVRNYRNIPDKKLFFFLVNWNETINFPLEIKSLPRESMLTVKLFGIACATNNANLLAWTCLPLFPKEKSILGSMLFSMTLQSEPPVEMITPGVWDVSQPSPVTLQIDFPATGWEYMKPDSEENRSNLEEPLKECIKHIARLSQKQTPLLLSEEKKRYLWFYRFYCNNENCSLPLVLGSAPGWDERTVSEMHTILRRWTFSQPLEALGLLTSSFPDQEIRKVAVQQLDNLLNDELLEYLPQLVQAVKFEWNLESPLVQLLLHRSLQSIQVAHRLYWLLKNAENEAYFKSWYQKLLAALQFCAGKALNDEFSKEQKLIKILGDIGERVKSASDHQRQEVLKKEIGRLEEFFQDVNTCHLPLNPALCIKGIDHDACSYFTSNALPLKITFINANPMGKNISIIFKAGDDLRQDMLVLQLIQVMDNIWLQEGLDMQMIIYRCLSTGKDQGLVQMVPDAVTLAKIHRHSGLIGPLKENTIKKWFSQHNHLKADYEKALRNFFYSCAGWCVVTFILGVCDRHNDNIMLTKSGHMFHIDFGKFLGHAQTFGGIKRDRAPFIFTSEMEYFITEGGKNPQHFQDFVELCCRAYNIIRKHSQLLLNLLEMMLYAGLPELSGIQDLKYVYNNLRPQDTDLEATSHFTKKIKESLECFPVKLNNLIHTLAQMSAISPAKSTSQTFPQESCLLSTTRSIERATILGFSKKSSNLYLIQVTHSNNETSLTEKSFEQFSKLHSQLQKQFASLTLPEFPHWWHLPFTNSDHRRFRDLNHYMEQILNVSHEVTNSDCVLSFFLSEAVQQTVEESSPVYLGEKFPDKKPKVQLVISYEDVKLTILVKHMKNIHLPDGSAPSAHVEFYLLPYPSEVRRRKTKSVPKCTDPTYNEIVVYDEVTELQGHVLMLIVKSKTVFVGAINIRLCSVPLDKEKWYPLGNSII

[3] = target: Receptor tyrosine-protein kinase erbB-4 (Homo sapiens, UniProt Q15303); assay: Selectivity interaction (Millipore kinase profiler) EUB0000124b ERBB4; conditions: at 10 µM
[4] = target: T2, Serine/threonine-protein kinase greatwall (Homo sapiens) (UniProt Q96GX5); assay: Selectivity interaction (LanthaScreen Eu Kinase Binding Assay) EUB0001632a MASTL; conditions: at 10 µM
T2 sequence (whole entry): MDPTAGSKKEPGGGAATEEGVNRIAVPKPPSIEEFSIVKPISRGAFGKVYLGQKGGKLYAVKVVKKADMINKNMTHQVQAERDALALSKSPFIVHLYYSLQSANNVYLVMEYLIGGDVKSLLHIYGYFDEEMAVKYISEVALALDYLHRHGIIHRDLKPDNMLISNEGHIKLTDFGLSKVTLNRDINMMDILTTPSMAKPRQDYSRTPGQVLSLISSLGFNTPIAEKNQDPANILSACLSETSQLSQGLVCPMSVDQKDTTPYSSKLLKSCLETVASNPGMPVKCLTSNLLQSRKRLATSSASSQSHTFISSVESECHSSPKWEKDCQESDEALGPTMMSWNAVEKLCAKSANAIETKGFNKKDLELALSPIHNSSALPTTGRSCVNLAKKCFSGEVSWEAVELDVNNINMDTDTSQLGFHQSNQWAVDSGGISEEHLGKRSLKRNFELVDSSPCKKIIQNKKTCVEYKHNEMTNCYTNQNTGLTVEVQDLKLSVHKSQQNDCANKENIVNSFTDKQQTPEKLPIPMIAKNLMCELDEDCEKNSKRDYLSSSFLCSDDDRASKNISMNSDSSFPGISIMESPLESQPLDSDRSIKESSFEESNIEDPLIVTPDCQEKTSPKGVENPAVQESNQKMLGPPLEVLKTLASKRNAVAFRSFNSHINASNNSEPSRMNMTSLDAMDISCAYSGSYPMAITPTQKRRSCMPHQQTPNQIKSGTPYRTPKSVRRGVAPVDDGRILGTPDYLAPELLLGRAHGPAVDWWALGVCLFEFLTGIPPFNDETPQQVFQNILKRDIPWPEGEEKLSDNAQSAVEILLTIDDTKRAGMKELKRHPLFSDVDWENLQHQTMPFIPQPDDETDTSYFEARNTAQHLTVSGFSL

[5] = target: Ribosomal protein S6 kinase alpha-3 (Homo sapiens, UniProt P51812); assay: Selectivity interaction (ActivX KiNativ screen (kinase selectivity in THP-1 cell lysates)) EUB0000639a RPS6KA3; format: subcellular; conditions: lysate, at 0.2 µM
Ribosomal protein S6 kinase alpha-3, sequence (P51812 whole entry): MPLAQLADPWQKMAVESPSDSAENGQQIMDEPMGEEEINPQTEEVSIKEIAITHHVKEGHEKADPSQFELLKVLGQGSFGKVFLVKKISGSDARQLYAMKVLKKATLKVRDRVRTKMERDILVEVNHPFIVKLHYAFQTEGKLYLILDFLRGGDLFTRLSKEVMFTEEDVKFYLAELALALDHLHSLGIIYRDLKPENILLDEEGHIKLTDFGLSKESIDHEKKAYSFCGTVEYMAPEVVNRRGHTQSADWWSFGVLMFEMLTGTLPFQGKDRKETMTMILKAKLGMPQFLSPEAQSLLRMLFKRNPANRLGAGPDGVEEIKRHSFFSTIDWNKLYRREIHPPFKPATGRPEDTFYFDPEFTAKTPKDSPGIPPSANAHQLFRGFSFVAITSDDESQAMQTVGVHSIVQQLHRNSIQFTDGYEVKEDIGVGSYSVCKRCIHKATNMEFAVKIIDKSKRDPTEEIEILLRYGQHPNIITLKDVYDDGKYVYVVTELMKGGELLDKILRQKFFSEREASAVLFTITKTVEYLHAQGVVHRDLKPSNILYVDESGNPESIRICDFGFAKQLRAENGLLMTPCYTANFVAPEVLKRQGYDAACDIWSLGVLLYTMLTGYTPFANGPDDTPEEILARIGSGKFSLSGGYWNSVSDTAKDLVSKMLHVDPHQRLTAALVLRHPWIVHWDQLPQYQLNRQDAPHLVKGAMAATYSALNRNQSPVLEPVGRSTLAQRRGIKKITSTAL

Mitogen-activated protein kinase kinase kinase 10 (Homo sapiens), sequence (Q02779 whole entry, looked up, the tested form may be a part): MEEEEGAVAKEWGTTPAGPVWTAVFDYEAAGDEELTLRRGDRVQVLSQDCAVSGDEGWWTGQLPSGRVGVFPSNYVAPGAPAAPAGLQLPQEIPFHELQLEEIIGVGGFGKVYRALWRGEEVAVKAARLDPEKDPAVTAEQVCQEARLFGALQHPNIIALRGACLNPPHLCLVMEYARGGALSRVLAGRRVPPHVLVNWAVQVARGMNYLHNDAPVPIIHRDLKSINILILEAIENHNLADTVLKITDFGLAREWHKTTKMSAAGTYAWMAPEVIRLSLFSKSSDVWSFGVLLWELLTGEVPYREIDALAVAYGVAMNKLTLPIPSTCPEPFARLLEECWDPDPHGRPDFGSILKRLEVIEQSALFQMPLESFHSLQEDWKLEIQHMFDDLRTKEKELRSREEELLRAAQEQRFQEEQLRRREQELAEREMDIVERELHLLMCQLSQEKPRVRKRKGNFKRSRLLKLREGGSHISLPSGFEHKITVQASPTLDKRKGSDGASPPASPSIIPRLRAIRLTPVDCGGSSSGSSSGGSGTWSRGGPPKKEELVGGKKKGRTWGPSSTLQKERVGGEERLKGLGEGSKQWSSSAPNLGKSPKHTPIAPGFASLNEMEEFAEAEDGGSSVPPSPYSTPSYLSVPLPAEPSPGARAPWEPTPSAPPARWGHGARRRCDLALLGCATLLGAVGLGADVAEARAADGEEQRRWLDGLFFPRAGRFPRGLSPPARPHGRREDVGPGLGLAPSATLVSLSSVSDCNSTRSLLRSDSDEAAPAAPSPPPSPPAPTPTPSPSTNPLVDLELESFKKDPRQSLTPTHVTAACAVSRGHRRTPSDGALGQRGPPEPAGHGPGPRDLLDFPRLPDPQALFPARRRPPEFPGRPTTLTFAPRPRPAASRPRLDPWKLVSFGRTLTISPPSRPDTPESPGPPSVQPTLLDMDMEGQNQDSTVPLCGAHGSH
Receptor tyrosine-protein kinase erbB-4, sequence (Q15303 whole entry): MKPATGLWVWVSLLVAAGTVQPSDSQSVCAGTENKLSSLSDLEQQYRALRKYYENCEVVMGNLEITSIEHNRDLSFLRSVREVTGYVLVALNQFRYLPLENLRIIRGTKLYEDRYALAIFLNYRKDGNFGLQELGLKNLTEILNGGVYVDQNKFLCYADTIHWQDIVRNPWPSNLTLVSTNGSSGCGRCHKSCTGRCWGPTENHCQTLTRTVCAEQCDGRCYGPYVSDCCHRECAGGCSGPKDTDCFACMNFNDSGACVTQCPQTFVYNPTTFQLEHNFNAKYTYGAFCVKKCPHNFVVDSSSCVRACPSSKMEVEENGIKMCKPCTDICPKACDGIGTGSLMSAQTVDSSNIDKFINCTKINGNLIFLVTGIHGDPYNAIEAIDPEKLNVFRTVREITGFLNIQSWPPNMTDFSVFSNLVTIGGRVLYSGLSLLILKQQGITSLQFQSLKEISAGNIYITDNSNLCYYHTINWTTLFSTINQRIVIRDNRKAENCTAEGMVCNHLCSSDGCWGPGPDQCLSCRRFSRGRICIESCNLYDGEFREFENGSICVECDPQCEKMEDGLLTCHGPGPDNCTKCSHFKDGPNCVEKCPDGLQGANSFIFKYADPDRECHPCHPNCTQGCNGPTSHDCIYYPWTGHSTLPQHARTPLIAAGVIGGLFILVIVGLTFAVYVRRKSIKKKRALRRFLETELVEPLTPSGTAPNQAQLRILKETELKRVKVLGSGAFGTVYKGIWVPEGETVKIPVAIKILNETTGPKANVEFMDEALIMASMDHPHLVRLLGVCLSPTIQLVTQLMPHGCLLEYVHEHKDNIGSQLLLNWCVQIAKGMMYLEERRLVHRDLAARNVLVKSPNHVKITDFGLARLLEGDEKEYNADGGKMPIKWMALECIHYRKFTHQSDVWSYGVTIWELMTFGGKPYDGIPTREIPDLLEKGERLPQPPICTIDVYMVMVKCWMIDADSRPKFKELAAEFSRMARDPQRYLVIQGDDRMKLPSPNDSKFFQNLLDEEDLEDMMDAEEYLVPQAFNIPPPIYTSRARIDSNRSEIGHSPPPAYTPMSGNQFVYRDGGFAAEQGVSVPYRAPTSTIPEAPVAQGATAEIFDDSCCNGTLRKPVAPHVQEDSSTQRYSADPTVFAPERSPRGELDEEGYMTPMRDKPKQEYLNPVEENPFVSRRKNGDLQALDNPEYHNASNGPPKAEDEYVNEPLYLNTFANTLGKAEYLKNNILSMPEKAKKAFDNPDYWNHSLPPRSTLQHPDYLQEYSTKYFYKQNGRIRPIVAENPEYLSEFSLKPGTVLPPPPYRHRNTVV

CN(C)CCOc1ccc(-c2nc(-c3ccncc3)c(-c3ccc4c(c3)CC/C4=N\O)[nH]2)cc1
% of control [1]: 92%

Nc1cnc(N2CCc3cc(S(=O)(=O)Nc4c(F)cc(Cl)cc4F)cc(N4CCCC4=O)c32)nc1 [TP-020n]
% of control [2]: 78%

CC(=O)Nc1cccc(-n2c(=O)n(C3CC3)c(=O)c3c(Nc4ccc(I)cc4F)n(C)c(=O)c(C)c32)c1
% of control [3]: 101%

Cn1cc(-n2cnc3c(NCc4nc5cc(Cl)c(Cl)cc5[nH]4)nc(N4CCOCC4)nc32)cn1
% of inhibition [4]: -42%

CC[C@@H]1[C@H](F)C(=O)N[C@@H]1COc1nccc2cc(C(N)=O)c(OC)cc12 [ZIMLOVISERTIB]
% of inhibition [5]: 5.4%
